Reference: PubChem BioAssay (NCI)
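How tested: cells in 96-well plates exposed to compound for 48 hours at five concentrations. GI50 = concentration required for 50% inhibition of growth. TGI is the concentration that stops growth completely.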

Key:
Test in all cases: inhibition of tumour cell growth, NCI panel, 48 h
[1] = system: A549 NSCLC
[2] = system: NCI-H522 lung
[3] = system: OVCAR-8 ovarian
[4] = system: M14 melanoma
[5] = system: SK-MEL-28 melanoma
[6] = system: SF-295 CNS
[7] = system: HCT-116 colon
[8] = system: DU-145 prostate
[9] = system: MOLT-4 leukemia
[10] = system: MCF7 breast
[11] = system: NCI-H460 lung
[12] = system: SNB-75 CNS
[13] = system: IGROV1 ovarian
[14] = system: T-47D breast
[15] = system: UACC-62 melanoma
[16] = system: UACC-257 melanoma
[17] = system: COLO 205 colon
[18] = system: CCRF-CEM leukemia
[19] = system: RXF 393 renal
[20] = system: ACHN renal
[21] = system: SK-MEL-5 melanoma
[22] = system: U251 CNS
[23] = system: OVCAR-3 ovarian
[24] = system: SF-268 CNS
[25] = system: K-562 leukemia
[26] = system: HCT-15 colon
[27] = system: NCI/ADR-RES ovarian
[28] = system: SNB-19 CNS
[29] = system: HOP-92 NSCLC
[30] = system: HL-60(TB) leukemia
[31] = system: SF-539 CNS
[32] = system: BT-549 breast
[33] = system: EKVX NSCLC
[34] = system: HT29 colon
[35] = system: SW-620 colon
[36] = system: UO-31 renal
[37] = system: A498 renal
[38] = system: 786-0 renal
[39] = system: MDA-MB-435
[40] = system: NCI-H23 lung
[41] = system: RPMI-8226 leukemia
[42] = system: HS 578T breast
[43] = system: SK-MEL-2 melanoma
[44] = system: SN12C renal
[45] = system: NCI-H226 lung
[46] = system: LOX IMVI melanoma
[47] = system: MDA-MB-231 breast
[48] = system: SK-OV-3 ovarian
[49] = system: CAKI-1 renal
[50] = system: MALME-3M melanoma
[51] = system: HOP-62 NSCLC
[52] = system: SR leukemia
[53] = system: TK-10 renal
[54] = system: OVCAR-4 ovarian
[55] = system: HCC-2998 colon
[56] = system: KM12 colon
[57] = system: OVCAR-5 ovarian
[58] = system: PC-3 prostate

CCn1cc(C2NC(=O)c3ccccc3N2)c2cccc(C)c21 (stereo unspecified)
GI50 [1]: 0.653 µM | TGI [1]: 14.7 µM | GI50 [2]: 0.265 µM | TGI [2]: 17.6 µM | GI50 [3]: 0.617 µM | TGI [3]: 22.6 µM | GI50 [4]: 0.298 µM | TGI [4]: > 100 µM | GI50 [5]: 2.04 µM | TGI [5]: > 100 µM | GI50 [6]: 0.293 µM | GI50 [7]: 0.409 µM | TGI [7]: 11.5 µM | GI50 [8]: 0.43 µM | TGI [8]: 27.9 µM | GI50 [9]: 0.531 µM | TGI [9]: > 100 µM | GI50 [10]: 0.298 µM | TGI [10]: > 100 µM | GI50 [11]: 0.346 µM | TGI [11]: 1.46 µM | GI50 [12]: 0.184 µM | TGI [12]: 0.829 µM | GI50 [13]: 0.473 µM | TGI [13]: > 100 µM | GI50 [14]: 0.556 µM | TGI [14]: > 100 µM | GI50 [15]: 0.311 µM | TGI [15]: > 100 µM | GI50 [16]: 60 µM | TGI [16]: > 100 µM | GI50 [17]: 0.485 µM | TGI [17]: 9.88 µM | GI50 [18]: 0.324 µM | TGI [18]: 96.9 µM | GI50 [19]: 0.199 µM | TGI [19]: 0.658 µM | GI50 [20]: 0.685 µM | TGI [20]: 23.1 µM | GI50 [21]: 0.338 µM | TGI [21]: 5.87 µM | GI50 [22]: 0.456 µM | TGI [22]: 13.9 µM | GI50 [23]: 0.275 µM | TGI [23]: 1.02 µM | GI50 [24]: 1.36 µM | TGI [24]: > 68 µM | GI50 [25]: 0.224 µM | TGI [25]: > 100 µM | GI50 [26]: 0.36 µM | TGI [26]: 24.5 µM | GI50 [27]: 0.319 µM | TGI [27]: 4.57 µM | GI50 [28]: 0.456 µM | TGI [28]: > 100 µM | GI50 [29]: 4.79 µM | TGI [29]: > 78.7 µM | GI50 [30]: 0.31 µM | TGI [30]: 1.06 µM | GI50 [31]: 0.275 µM | TGI [31]: 1.34 µM | GI50 [32]: 0.901 µM | TGI [32]: 17.6 µM | GI50 [33]: 0.621 µM | TGI [33]: > 100 µM | GI50 [34]: 0.331 µM | TGI [34]: 4.29 µM | GI50 [35]: 0.337 µM | TGI [35]: > 100 µM | GI50 [36]: 0.631 µM | TGI [36]: 16.4 µM | GI50 [37]: 0.172 µM | TGI [37]: 0.947 µM | GI50 [38]: 0.539 µM | TGI [38]: 22.3 µM | GI50 [39]: 0.142 µM | TGI [39]: 0.357 µM | GI50 [40]: 0.844 µM | TGI [40]: > 100 µM | GI50 [41]: 0.381 µM | TGI [41]: > 100 µM | GI50 [42]: 0.255 µM | TGI [42]: 1.95 µM | GI50 [43]: 0.631 µM | TGI [43]: > 100 µM | GI50 [44]: 0.579 µM | TGI [44]: 17 µM | GI50 [45]: 0.572 µM | TGI [45]: 13.2 µM | GI50 [46]: 0.571 µM | TGI [46]: 13.7 µM | GI50 [47]: 0.991 µM | TGI [47]: 12 µM | GI50 [48]: 0.522 µM | TGI [48]: > 86.1 µM | GI50 [49]: 0.289 µM | TGI [49]: 20.4 µM | GI50 [50]: 0.449 µM | TGI [50]: > 100 µM | GI50 [51]: 0.517 µM | TGI [51]: 34.2 µM | GI50 [52]: 0.261 µM | TGI [52]: > 100 µM | GI50 [53]: 3 µM | TGI [53]: > 40.9 µM | GI50 [54]: 1.49 µM | TGI [54]: 13.1 µM | GI50 [55]: 1.08 µM | TGI [55]: 8.22 µM | GI50 [56]: 0.389 µM | TGI [56]: 22.2 µM | GI50 [57]: 0.915 µM | TGI [57]: > 91.6 µM | GI50 [58]: 0.443 µM | TGI [58]: > 100 µM

Cc1cc(Cl)ccc1Nc1nc(C(F)(F)F)ccc1C(=O)N/N=C/c1cccc(O)c1
GI50 [1]: 8.15 µM | TGI [1]: 25.5 µM | GI50 [2]: 8.28 µM | TGI [2]: > 41 µM | GI50 [3]: 1.68 µM | TGI [3]: 15.3 µM | GI50 [4]: 4.53 µM | TGI [4]: 17.3 µM | GI50 [5]: 3.65 µM | TGI [5]: 16.8 µM | GI50 [6]: 0.159 µM | TGI [6]: 1.1 µM | GI50 [7]: 4.42 µM | TGI [7]: 16.5 µM | GI50 [8]: 3.66 µM | TGI [8]: 15.2 µM | GI50 [9]: 1.01 µM | TGI [9]: 3.27 µM | GI50 [10]: 2.21 µM | TGI [10]: 12.7 µM | GI50 [11]: 3.57 µM | TGI [11]: 12.8 µM | GI50 [12]: 2.07 µM | TGI [12]: 13.8 µM | GI50 [13]: 3.85 µM | TGI [13]: 23.4 µM | GI50 [14]: 0.112 µM | TGI [14]: 3.13 µM | GI50 [15]: 5.88 µM | TGI [15]: 19.5 µM | GI50 [16]: 11.5 µM | TGI [16]: 38.2 µM | GI50 [17]: 1.17 µM | TGI [17]: 9.55 µM | GI50 [18]: 0.449 µM | TGI [18]: 2.41 µM | GI50 [19]: 0.194 µM | TGI [19]: 11.3 µM | GI50 [20]: 4.19 µM | TGI [20]: > 31.8 µM | GI50 [21]: 3.35 µM | TGI [21]: 12.6 µM | GI50 [22]: 4.51 µM | TGI [22]: 19.8 µM | GI50 [23]: 1.48 µM | TGI [23]: 12.7 µM | GI50 [24]: 1.6 µM | TGI [24]: 12.2 µM | GI50 [25]: 1.99 µM | TGI [25]: 7.1 µM | GI50 [26]: 2.51 µM | TGI [26]: 16 µM | GI50 [27]: 4.78 µM | TGI [27]: 17.6 µM | GI50 [28]: 2.37 µM | TGI [28]: 11.9 µM | GI50 [29]: 3.36 µM | TGI [29]: 13.9 µM | GI50 [30]: 2.11 µM | TGI [30]: 4.97 µM | GI50 [31]: 4.38 µM | TGI [31]: 15.8 µM | GI50 [32]: 0.861 µM | TGI [32]: 4.24 µM | GI50 [33]: 0.814 µM | TGI [33]: 7.19 µM | GI50 [34]: 5.03 µM | TGI [34]: 16.9 µM | GI50 [35]: 3.39 µM | TGI [35]: 14.9 µM | GI50 [36]: 4.98 µM | TGI [36]: 29 µM | GI50 [37]: 4.23 µM | TGI [37]: 18.1 µM | GI50 [38]: 4.01 µM | TGI [38]: 13.3 µM | GI50 [39]: 2.17 µM | TGI [39]: 13.7 µM | GI50 [40]: 6.66 µM | TGI [40]: 20.1 µM | GI50 [41]: 2.51 µM | TGI [41]: 9.68 µM | GI50 [42]: 2.11 µM | TGI [42]: 11.5 µM | GI50 [43]: 2.09 µM | TGI [43]: 12.7 µM | GI50 [44]: 6.77 µM | TGI [44]: 23.8 µM | GI50 [45]: 3.74 µM | TGI [45]: 20.1 µM | GI50 [46]: 3.18 µM | TGI [46]: 13.6 µM | GI50 [47]: 4.77 µM | TGI [47]: 35.4 µM | GI50 [48]: 1.23 µM | TGI [48]: 10.6 µM | GI50 [49]: 0.202 µM | TGI [49]: 5.98 µM | GI50 [50]: 1.75 µM | TGI [50]: 8.8 µM | GI50 [51]: 7.22 µM | TGI [51]: 20.7 µM | GI50 [52]: 0.836 µM | TGI [52]: 4.49 µM | GI50 [53]: 2.45 µM | TGI [53]: 12.3 µM | GI50 [54]: 1.13 µM | TGI [54]: 14.6 µM | GI50 [55]: 3.13 µM | TGI [55]: 13.8 µM | GI50 [56]: 2.56 µM | TGI [56]: 11.9 µM | GI50 [57]: 5.96 µM | TGI [57]: 25 µM | GI50 [58]: 2.96 µM | TGI [58]: 12.9 µM
